Data set [1] has as its system serum levels of cytokine analytes. As to conditions: in vivo.
Data set [2] has the same test system. How it is done:
T cell products were generated by transduction of autologous lymphocytes with a g-murine retrovirus carrying an anti-CD19 CAR construct gene, followed by expansion to achieve desired cell dose. Anti-CD19 CAR+ T cell product characteristics were evaluated at time of harvest, or after co-culture with CD19+ cells, by flow cytometry and multiplex cytokine analysis of co-culture supernatants. CAR+ T cell co-culture for product characterization was performed with K562-CD19 cells or K562-NGFR control cells, at an effector to target ratio of 1:1. Standard incubation time was 18 hours.
Cytokine and chemokine levels were measured using EMDmillipore Luminex® xMAP® multiplex assays. Data acquisition and analysis were performed using a Luminex 200™ instrument and xPONENT® 3.1 data analysis software. For IL-7, a human IL-7 Quantikine HS ELISA Kit (HS750) was used with samples run neat per manufacturer's guidelines. The frequency of CAR T cells in circulation was measured by a quantitative PCR analysis. Patients were administered a preconditioning regimen comprising of 300 mg/m^2 cyclophosphamide on days −5 and −4, and 30 mg/m^2 fludarabine on days −5, −4, and −3. Patient sera was collected prior to administration of cyclophosphamide and fludarabine between days −12 and −5 (“pre”), immediately before administration of CAR+ T cells on day 0 (“post”) and on select days following CAR+ T cell administration up to day 18. The serum concentrations of GF-CSF, IL-2, MCP-1, IL-6, IL-10, MCP-4, CRP, IFN gamma, Granzyme A, IL-15, IL-5, Granzyme B, IL-8, IP-10, MIP-1b, PLGF, IL-16, TARC, Eotaxin-3, sICAM-1, sVCAM-1, and SAA were measured pre- and post-conditioning and on select days after administration of CAR+ T cells, as shown in FIG. 6.

For data set [3] the following is noted: human, in vivo.
The mark [4] stands for this setting: 300 mg/m^2 cyclophosphamide, 30 mg/m^2 fludarabine, pre vs day 0.

Regarding cyclophosphamide and fludarabine, in data set [1], the “CRP increase, average” value is “about 10 fold”; the “CRP increase, range” value is “essentially no change to an increase of about 25 fold”; the “CRP level in patient sera after conditioning” value is “increased in some patients and remained stable or decreased in others”; the “Change in serum CRP” value is recorded as “essentially no change”. Further, in data set [1], the “Change in serum PLGF” value is “only a slight increase”, the “Change in serum VEGF-D” value is listed as “essentially no change”, the “Change in serum sICAM-1” value was “essentially no change” and the “Decrease of serum MIP-1β” value is given as “about 50%”. In addition, in data set [1], the “IL-15 increase relative to baseline” value is listed as “less than 10 fold”; the “IL-15 increase relative to baseline, average” value is “about 35 fold”; the “IL-15 level in patient sera after conditioning” value was “at least some increase”; the MCP-1 increase result is on record as “less than 4 fold”. Moreover, in data set [1], the “MCP-1 increase, average” value is “about 5 fold”; the “MCP-1 level in patient sera after conditioning” value is “at least some increase”; the “MIP-1 β level in patient sera after conditioning” value is “increased in some patients and remained stable or decreased in others”; the “MIP-10 levels increase, average” value is “about 1.5 fold”. Besides, in data set [1], the “MIP-10 levels increase, range” value is “essentially no change to an increase of about 3 fold”; the “PLGF increase, average” value is “about 30 fold”; the “PLGF increase, range” value is given as “about 2 fold or less to an increase of about over 100 fold”; the “PLGF level in patient sera after conditioning” value is recorded as “at least some increase”. For the same compound, in data set [1], the “VEGF-D increase, average” value is “about 3 fold”; the “VEGF-D increase, range” value was “essentially no change to an increase of about 6 fold”; the “VEGF-D level in patient sera after conditioning” value is “increased in some patients and remained stable or decreased in others”; the “sICAM-1 increase, average” value was “about 3 fold”. In data set [1], the “sICAM-1 increase, range” value is on record as “essentially no change to an increase of about 4.5 fold”; the “sICAM-1 level in patient sera after conditioning” value is “increased in some patients and remained stable or decreased in others”. Also, in data set [1] (ip), the “Change in serum IP-10” value is on record as “essentially no change”; the “IP-10 increase, average” value is “about 3.5 fold”; the “IP-10 level in patient sera after conditioning” value was “increased in some patients and remained stable or decreased in others”. In data set [2] (setting [4]), the “Serum concentration of CRP following conditioning” value is given as “significantly increased”, the “Serum concentration of IL-5 following conditioning” value is “Increases”, the “Serum concentration of IL-7 following conditioning” value is reported as “significantly increased” and the “Serum concentration of IL-10 following conditioning” value is listed as “Increases”. Moreover, in data set [2] (setting [4]), the “Serum concentration of IL-15 following conditioning” value is “significantly increased”, the “Serum concentration of IP-10 following conditioning” value is listed as “Increases”, the “Serum concentration of MCP-1 following conditioning” value is recorded as “significantly increased” and the “Serum concentration of PLGF following conditioning” value is listed as “significantly increased”. For the same compound, in data set [2] (setting [4]), the “Serum concentration of s-ICAM1 following conditioning” value is given as “Increases” and the “Serum perform after conditioning” value was “decrease”. For the same compound, the “Markers showing changes in a majority of patients, associated with p<0.05” value in data set [2] (FIG. 14, markers measured prior to CAR T cell infusion) is given as 7 out of 41 measured markers.

For the compound `O=P1(N(CCCl)CCCl)NCCCO1` (centres unmarked) [cyclophosphamide], the “Incidence of dose limiting toxicity (DLT)” value in data set [3] was 29%.
